Measured values taken from patent US20100316713A1, “PHARMACEUTICAL COMPOSITION” (priority 2007, published 2010).

Experiment: stability of the drug substance in water
Format: physicochemical

Q: Which water sensitivity (may convert to free base hydrate, solvate or amorphous form in the presence of ethanol and/or water) does the source give for `CN1CCN(c2nc(C3=C(c4c[nH]c5ccccc45)C(=O)NC3=O)c3ccccc3n2)CC1` [3-(1.H.-indol-3-yl)-4-[2-(4-methyl-piperazin-1-yl)-quinazolin-4-yl]-pyrrole-2,5-dione] here?
A: Its water sensitivity is “water sensitive”.

Q: What about the degradation in water (water, renders aqueous granulation difficult) of the same compound?
A: Its degradation in water is “high degradation”.
